Measured values as given in patent publication US8748415B2 (priority 2011, dated 2014).

These compounds were tested on recombinant NL4-3 virus (Renilla luciferase in nef, Gag P373S) (assay: HIV cell culture assay (luciferase activity in MT-2 cells infected with NLRluc recombinant virus)). Settings: NL43, MT-2 cells infected 4-5 days with NLRluc recombinant virus, class symbol.
Format: cell-based
Experimental: HIV cell culture assay—MT-2 cells and 293T cells were obtained from the NIH AIDS Research and Reference Reagent Program. MT-2 cells were propagated in RPMI 1640 media supplemented with 10% heat inactivated fetal bovine serum, […]. The 293T cells were propagated in DMEM media supplemented with 10% heat inactivated fetal bovine serum (FBS), 100 units/ml penicillin G and 100 μg/ml streptomycin. The proviral DNA clone of NL4-3 was obtained from the NIH AIDS Research and Reference Reagent Program. A recombinant NL4-3 virus, in which a section of the nef gene from NL4-3 was replaced with the Renilla luciferase gene, was used as a reference virus. In addition, residue Gag P373 was converted to P373S. Briefly, the recombinant virus was prepared by transfection of the altered proviral clone of NL4-3. Transfections were performed in 293T cells using LipofectAMINE PLUS from Invitrogen (Carlsbad, Calif.), according to manufacturer's instruction. The virus was titered in MT-2 cells using luciferase enzyme activity as a marker. Luciferase was quantitated using the Dual Luciferase kit from Promega (Madison, Wis.), with modifications to the manufacturer's protocol. The diluted Passive Lysis solution was pre-mixed with the re-suspended Luciferase Assay Reagent and the re-suspended Stop & Glo Substrate (2:1:1 ratio). Fifty (50) μL of the mixture was added to each aspirated well on assay plates and luciferase activity was measured immediately on a Wallac TriLux (Perkin-Elmer). Antiviral activities of inhibitors toward the recombinant virus were quantified by measuring luciferase activity in cells infected for 4-5 days with NLRluc recombinants in the presence serial dilutions of the inhibitor. Table 1 is the key for the data in Table 2.

| SMILES | EC50 |
| --- | --- |
| C=C(C)[C@@H]1CC[C@]2(CNCC(=O)O)CC[C@]3(C)[C@H](CC[C@@H]4[C@@]5(C)CC=C(c6ccc(C(=O)O)cc6)C(C)(C)[C@@H]5CC[C@]43C)[C@@H]12 [Example 31, 4-((1R,3aS,5aR,5bR,7aR,11aS,11bR,13aR,13bR)-3a-((carboxymethylamino)methyl)-5a,5b,8,8,11a-pentamethyl-1-(prop-1-en-2-yl)-2,3,3a,4,5,5a,5b,6,7,7a,8,11,11a,11b,12,13,13a,13b-octadecahydro-1H-cyclopenta[a]chrysen-9-yl)benzoic acid] | < 100 nM |
| C=C(C)[C@@H]1CC[C@]2(CN(C)CCN3CCS(=O)(=O)CC3)CC[C@]3(C)[C@H](CC[C@@H]4[C@@]5(C)CC=C(c6ccc(C(=O)O)cc6)C(C)(C)[C@@H]5CC[C@]43C)[C@@H]12 [Example 33] | < 100 nM |
| C=C(C)[C@@H]1CC[C@]2(CNCCN3CCCC3=O)CC[C@]3(C)[C@H](CC[C@@H]4[C@@]5(C)CC=C(c6ccc(C(=O)O)cc6)C(C)(C)[C@@H]5CC[C@]43C)[C@@H]12 [Example 34, 4-((1R,3aS,5aR,5bR,7aR,11aS,11bR,13aR,13bR)-5a,5b,8,8,11a-pentamethyl-3a-((2-(2-oxopyrrolidin-1-yl)ethylamino)methyl)-1-(prop-1-en-2-yl)-2,3,3a,4,5,5a,5b,6,7,7a,8,11,11a,11b,12,13,13a,13b-octadecahydro-1H-cyclopenta[a]chrysen-9-yl)benzoic acid] | < 100 nM |
| C=C(C)[C@@H]1CC[C@]2(CNCc3ccc(S(N)(=O)=O)cc3)CC[C@]3(C)[C@H](CC[C@@H]4[C@@]5(C)CC=C(c6ccc(C(=O)O)cc6)C(C)(C)[C@@H]5CC[C@]43C)[C@@H]12 [Example 35] | < 100 nM |
| C=C(C)[C@@H]1CC[C@]2(CNCCc3ccc(S(N)(=O)=O)cc3)CC[C@]3(C)[C@H](CC[C@@H]4[C@@]5(C)CC=C(c6ccc(C(=O)O)cc6)C(C)(C)[C@@H]5CC[C@]43C)[C@@H]12 [Example 36, 4-((1R,3aS,5aR,5bR,7aR,11aS,11bR,13aR,13bR)-5a,5b,8,8,11a-pentamethyl-1-(prop-1-en-2-yl)-3a-((4-sulfamylphenethylamino)methyl)-2,3,3a,4,5,5a,5b,6,7,7a,8,11,11a,11b,12,13,13a,13b-octadecahydro-1H-cyclopenta[a]chrysen-9-yl)benzoic acid] | < 100 nM |
| CC(C)[C@@H]1CC[C@]2(CNCCCN3CCS(=O)(=O)CC3)CC[C@]3(C)[C@H](CC[C@@H]4[C@@]5(C)CC=C(c6ccc(C(=O)O)cc6)C(C)(C)[C@@H]5CC[C@]43C)[C@@H]12 [Example 37, 4-((1R,3aS,5aR,5bR,7aR,11aS,11bR,13aR,13bR)-5a,5b,8,8,11a-pentamethyl-1-(prop-1-en-2-yl)-3a-((3-(1-dioxo-thiomorpholino)propylamino)methyl)-2,3,3a,4,5,5a,5b,6,7,7a,8,11,11a,11b,12,13,13a,13b-octadecahydro-1H-cyclopenta[a]chrysen-9-yl)benzoic acid] | < 100 nM |
| C=C(C)[C@@H]1CC[C@]2(CNCCCC(=O)OC)CC[C@]3(C)[C@H](CC[C@@H]4[C@@]5(C)CC=C(c6ccc(C(=O)O)cc6)C(C)(C)[C@@H]5CC[C@]43C)[C@@H]12 [Example 38, 4-((1R,3aS,5aR,5bR,7aR,11aS,11bR,13aR,13bR)-3a-((4-methoxy-4-oxobutylamino)methyl)-5a,5b,8,8,11a-pentamethyl-1-(prop-1-en-2-yl)-2,3,3a,4,5,5a,5b,6,7,7a,8,11,11a,11b,12,13,13a,13b-octadecahydro-1H-cyclopenta[a]chrysen-9-yl)benzoic acid] | < 100 nM |
| C=C(C)[C@@H]1CC[C@]2(CNCC(=O)N(C)C)CC[C@]3(C)[C@H](CC[C@@H]4[C@@]5(C)CC=C(c6ccc(C(=O)O)cc6)C(C)(C)[C@@H]5CC[C@]43C)[C@@H]12 [Example 39, 4-((1R,3aS,5aR,5bR,7aR,11aS,11bR,13aR,13bR)-3a-((2-(dimethylamino)-2-oxoethylamino)methyl)-5a,5b,8,8,11a-pentamethyl-1-(prop-1-en-2-yl)-2,3,3a,4,5,5a,5b,6,7,7a,8,11,11a,11b,12,13,13a,13b-octadecahydro-1H-cyclopenta[a]chrysen-9-yl)benzoic acid] | < 100 nM |
| C=C(C)[C@@H]1CC[C@]2(CNCCCN3CCCS3(=O)=O)CC[C@]3(C)[C@H](CC[C@@H]4[C@@]5(C)CC=C(c6ccc(C(=O)O)cc6)C(C)(C)[C@@H]5CC[C@]43C)[C@@H]12 [Example 40, 4-((1R,3aS,5aR,5bR,7aR,11aS,11bR,13aR,13bR)-3a-(((3-(1,1-dioxido-2-isothiazolidinyl)propyl)amino)methyl)-1-isopropenyl-5a,5b,8,8,11a-pentamethyl-2,3,3a,4,5,5a,5b,6,7,7a,8,11,11a,11b,12,13,13a,13b-octadecahydro-1H-cyclopenta[a]chrysen-9-yl)benzoic acid] | < 100 nM |
| C=C(C)[C@@H]1CC[C@]2(CNCCS(C)(=O)=O)CC[C@]3(C)[C@H](CC[C@@H]4[C@@]5(C)CC=C(c6ccc(C(=O)O)cc6)C(C)(C)[C@@H]5CC[C@]43C)[C@@H]12 [Example 41, 4-((1R,3aS,5aR,5bR,7aR,11aS,11bR,13aR,13bR)-5a,5b,8,8,11a-pentamethyl-3a-((2-(methylsulfonyl)ethylamino)methyl)-1-(prop-1-en-2-yl)-2,3,3a,4,5,5a,5b,6,7,7a,8,11,11a,11b,12,13,13a,13b-octadecahydro-1H-cyclopenta[a]chrysen-9-yl)benzoic acid] | < 100 nM |
| C=C(C)[C@@H]1CC[C@]2(CNCC(OCC)OCC)CC[C@]3(C)[C@H](CC[C@@H]4[C@@]5(C)CC=C(c6ccc(C(=O)O)cc6)C(C)(C)[C@@H]5CC[C@]43C)[C@@H]12 [Example 42, 4-((1R,3aS,5aR,5bR,7aR,11aS,11bR,13aR,13bR)-3a-((2,2-diethoxyethylamino)methyl)-5a,5b,8,8,11a-pentamethyl-1-(prop-1-en-2-yl)-2,3,3a,4,5,5a,5b,6,7,7a,8,11,11a,11b,12,13,13a,13b-octadecahydro-1H-cyclopenta[a]chrysen-9-yl)benzoic acid] | < 100 nM |
| C=C(C)[C@@H]1CC[C@]2(CNCCS(=O)(=O)N3CCNCC3)CC[C@]3(C)[C@H](CC[C@@H]4[C@@]5(C)CC=C(c6ccc(C(=O)O)cc6)C(C)(C)[C@@H]5CC[C@]43C)[C@@H]12 [Example 43, 4-((1R,3aS,5aR,5bR,7aR,11aS,11bR,13aR,13bR)-5a,5b,8,8,11a-pentamethyl-3a-((2-(piperazin-1-ylsulfonyl)ethylamino)methyl)-1-(prop-1-en-2-yl)-2,3,3a,4,5,5a,5b,6,7,7a,8,11,11a,11b,12,13,13a,13b-octadecahydro-1H-cyclopenta[a]chrysen-9-yl)benzoic acid] | < 100 nM |
| C=C(C)[C@@H]1CC[C@]2(CNCCS(N)(=O)=O)CC[C@]3(C)[C@H](CC[C@@H]4[C@@]5(C)CC=C(c6ccc(C(=O)O)cc6)C(C)(C)[C@@H]5CC[C@]43C)[C@@H]12 [Example 45] | < 100 nM |
| C=C(C)[C@@H]1CC[C@]2(CNCCc3ccc(C(=O)OC)cc3)CC[C@]3(C)[C@H](CC[C@@H]4[C@@]5(C)CC=C(c6ccc(C(=O)O)cc6)C(C)(C)[C@@H]5CC[C@]43C)[C@@H]12 [Example 46, 4-((1R,3aS,5aR,5bR,7aR,11aS,11bR,13aR,13bR)-3a-((4-(methoxycarbonyl)phenethylamino)methyl)-5a,5b,8,8,11a-pentamethyl-1-(prop-1-en-2-yl)-2,3,3a,4,5,5a,5b,6,7,7a,8,11,11a,11b,12,13,13a,13b-octadecahydro-1H-cyclopenta[a]chrysen-9-yl)benzoic acid] | < 100 nM |
| C=C(C)[C@@H]1CC[C@]2(CNCCc3ccc(C(=O)O)cc3)CC[C@]3(C)[C@H](CC[C@@H]4[C@@]5(C)CC=C(c6ccc(C(=O)O)cc6)C(C)(C)[C@@H]5CC[C@]43C)[C@@H]12 [Example 47, 4-((1R,3aS,5aR,5bR,7aR,11aS,11bR,13aR,13bR)-3a-((4-carboxyphenethylamino)methyl)-5a,5b,8,8,11a-pentamethyl-1-(prop-1-en-2-yl)-2,3,3a,4,5,5a,5b,6,7,7a,8,11,11a,11b,12,13,13a,13b-octadecahydro-1H-cyclopenta[a]chrysen-9-yl)benzoic acid] | < 100 nM |

Same assay, conditions: NL43, MT-2 cells infected 4-5 days with NLRluc recombinant virus, numeric value

| SMILES | EC50 |
| --- | --- |
| C=C(C)[C@@H]1CC[C@]2(CN(C)CCS(=O)(=O)N3CCN(C)CC3)CC[C@]3(C)[C@H](CC[C@@H]4[C@@]5(C)CC=C(c6ccc(C(=O)O)cc6)C(C)(C)[C@@H]5CC[C@]43C)[C@@H]12 [Example 44, 4-((1R,3aS,5aR,5bR,7aR,11aS,11bR,13aR,13bR)-5a,5b,8,8,11a-pentamethyl-3a-((methyl(2-(4-methylpiperazin-1-ylsulfonyl)ethyl)amino)methyl)-1-(prop-1-en-2-yl)-2,3,3a,4,5,5a,5b,6,7,7a,8,11,11a,11b,12,13,13a,13b-octadecahydro-1H-cyclopenta[a]chrysen-9-yl)benzoic acid] | 20 nM |
